Laboratory results taken from patent US8476265B2, “Compounds-801” (AstraZeneca AB, priority 2010, dated 2013).
Counter-ions that a name gives are not always drawn.

Key:
[1] = target: T1, human muscarinic acetylcholine M3 receptor (Homo sapiens, UniProt P20309); test: Muscarinic 3 receptor binding assay ([3H]NMS competition, SPA), pIC50; settings: [3H]NMS 0.1 nM, CHO-K1 cell membranes expressing human M3 receptor
T1 construct: expressed in transfected cells; host or cells: CHO-K1 (Chinese Hamster Ovary) cell membranes
T1 sequence (P20309 whole entry): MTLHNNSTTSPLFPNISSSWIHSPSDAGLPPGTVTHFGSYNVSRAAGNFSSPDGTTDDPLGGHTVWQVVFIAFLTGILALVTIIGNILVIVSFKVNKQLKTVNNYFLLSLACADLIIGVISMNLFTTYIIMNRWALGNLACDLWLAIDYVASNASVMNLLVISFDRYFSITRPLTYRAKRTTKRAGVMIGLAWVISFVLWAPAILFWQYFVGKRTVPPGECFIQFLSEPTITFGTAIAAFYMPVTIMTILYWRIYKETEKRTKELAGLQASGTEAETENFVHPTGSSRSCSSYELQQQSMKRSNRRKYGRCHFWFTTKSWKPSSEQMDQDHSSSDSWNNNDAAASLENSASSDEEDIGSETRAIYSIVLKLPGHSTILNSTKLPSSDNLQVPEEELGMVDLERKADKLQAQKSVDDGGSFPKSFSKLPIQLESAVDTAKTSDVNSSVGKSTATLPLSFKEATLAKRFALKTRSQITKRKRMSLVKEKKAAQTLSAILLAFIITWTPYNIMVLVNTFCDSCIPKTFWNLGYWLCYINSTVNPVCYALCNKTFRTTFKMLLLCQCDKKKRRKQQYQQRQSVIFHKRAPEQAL
In short: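 SPA beads precoated with human M3-expressing CHO-K1 membranes were incubated 16 h at room temperature with serially diluted compound and 0.1 nM [3H]NMS (pH 7.4 HEPES buffer, MgCl2, BSA, 1% DMSO). Atropine (1 μM) defined non-specific binding; pIC50 is the 50% reduction in specific binding.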

Adrenergic β2 = target: T2, Adrenergic β2 (Homo sapiens, UniProt P07550); test: Adrenergic β2 mediated cAMP production in H292 cells (AlphaScreen), concentration response; assay type: cell-based; settings: for EC50: 60 min, 300 μM rolipram, read-out: β2 pEC50 (converted); for β2 Intrinsic Activity: fraction relative to the maximum activity determined for formoterol
T2 construct: Adherent H292 cells are removed from tissue culture flasks by treatment with Accutase™ cell detachment solution; endogenous in cells; host or cells: H292 cells
T2 sequence (P07550 whole entry): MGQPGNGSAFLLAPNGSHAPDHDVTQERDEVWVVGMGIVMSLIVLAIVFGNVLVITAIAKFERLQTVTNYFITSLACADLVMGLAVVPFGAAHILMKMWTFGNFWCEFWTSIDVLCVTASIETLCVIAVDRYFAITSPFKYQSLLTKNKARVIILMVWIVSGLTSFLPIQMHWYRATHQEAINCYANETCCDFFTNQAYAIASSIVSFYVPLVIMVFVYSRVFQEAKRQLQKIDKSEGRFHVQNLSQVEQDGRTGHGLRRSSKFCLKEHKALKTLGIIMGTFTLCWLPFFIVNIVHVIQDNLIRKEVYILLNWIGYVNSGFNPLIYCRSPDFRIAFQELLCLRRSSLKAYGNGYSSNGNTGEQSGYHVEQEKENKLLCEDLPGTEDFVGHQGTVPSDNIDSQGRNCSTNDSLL
In short: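 Intracellular cAMP in lysates read by AlphaScreen, calibrated with cAMP standards; curves fitted for pEC50, with intrinsic activity as a fraction of formoterol's maximum. Agonist exposure 60 min at room temperature after 10 min rolipram (300 μM final), 1% DMSO, HEPES-buffered HBSS pH 7.4.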

SMILES | IC50 [1] | EC50 (Adrenergic β2) | β2 Intrinsic Activity (Adrenergic β2)
Cc1nc(C(=O)N2CCOC3(CCN(Cc4ccc(CCOCCC(=O)N(CCNCCc5ccc(O)c6c5OCC(=O)N6)C5CCCCC5)cc4)CC3)C2)cs1 [Example 45, N-Cyclohexyl-N-(2-(2-(5-hydroxy-3-oxo-3,4-dihydro-2H-benzo[b][1,4]oxazin-8-yl)ethylamino)ethyl)-3-(4-((4-(2-methylthiazole-4-carbonyl)-1-oxa-4,9-diazaspiro[5.5]undecan-9-yl)methyl)phenethoxy)propanamide ditrifluoroacetate] | 6.31 nM | 39.8 nM | 0.9
CC(C)CN(CCNCCc1ccc(O)c2c1OCC(=O)N2)C(=O)CCOCCc1cccc(CCN2CCC3(CC2)CN(C(=O)c2csc(C(C)C)n2)CCO3)c1 [Example 40, N-(2-(2-(5-Hydroxy-3-oxo-3,4-dihydro-2H-benzo[b][1,4]oxazin-8-yl)ethylamino)ethyl)-N-Isobutyl-3-(3-(2-(4-(2-isopropylthiazole-4-carbonyl)-1-oxa-4,9-diazaspiro[5.5]undecan-9-yl)ethyl)phenethoxy)propanamide ditrifluoroacetate] | 1.26 nM | 20 nM | 1.0
CCCCc1nc(C(=O)N2CCOC3(CCN(Cc4cccc(CCOCCC(=O)N(CC)CCNCCc5ccc(O)c6c5OCC(=O)N6)c4Cl)CC3)C2)cs1 [Example 77, 3-(3-((4-(2-Butylthiazole-4-carbonyl)-1-oxa-4,9-diazaspiro[5.5]undecan-9-yl)methyl)-2-chlorophenethoxy)-N-ethyl-N-(2-(2-(5-hydroxy-3-oxo-3,4-dihydro-2H-benzo[b][1,4]oxazin-8-yl)ethylamino)ethyl)propanamide ditrifluoroacetate] | 3.98 nM | 12.6 nM | 0.8
CC(C)c1csc(C(=O)N2CCOC3(CCN(Cc4cccc(CCOCCC(=O)N(CCNCCc5ccc(O)c6c5OCC(=O)N6)C5CCCCC5)c4)CC3)C2)c1 [Example 98, N-Cyclohexyl-N-(2-(2-(5-hydroxy-3-oxo-3,4-dihydro-2H-benzo[b][1,4]oxazin-8-yl)ethylamino)ethyl)-3-(3-((4-(4-isopropylthiophene-2-carbonyl)-1-oxa-4,9-diazaspiro[5.5]undecan-9-yl)methyl)phenethoxy)propanamide] | 0.794 nM | 200 nM | 1.1
CC(C)c1nc(C(=O)N2CCOC3(CCN(CCc4cccc(CCOCCC(=O)N(CCNCCc5ccc(O)c6c5OCC(=O)N6)Cc5ccccc5)c4)CC3)C2)cs1 [Example 41, N-Benzyl-N-(2-(2-(5-hydroxy-3-oxo-3,4-dihydro-2H-benzo[b][1,4]oxazin-8-yl)ethylamino)ethyl)-3-(3-(2-(4-(2-isopropylthiazole-4-carbonyl)-1-oxa-4,9-diazaspiro[5.5]undecan-9-yl)ethyl)phenethoxy)propanamide ditrifluoroacetate] | 0.794 nM | 20 nM | 0.9
CCCC[C@@H](C)N(CCNCCc1ccc(O)c2c1OCC(=O)N2)C(=O)CCOCCc1cccc(CCN2CCC3(CC2)CN(C(=O)c2csc(C)n2)CCO3)c1 [Example 38, (R)—N-(Hexan-2-yl)-N-(2-(2-(5-hydroxy-3-oxo-3,4-dihydro-2H-benzo[b][1,4]oxazin-8-yl)ethylamino)ethyl)-3-(3-(2-(4-(2-methylthiazole-4-carbonyl)-1-oxa-4,9-diazaspiro[5.5]undecan-9-yl)ethyl)phenethoxy)propanamide ditrifluoroacetate] | 0.398 nM | 15.8 nM | 1.0

Results, then the molecule that gave them:

IC50 [1] | EC50 (Adrenergic β2) | β2 Intrinsic Activity (Adrenergic β2) | SMILES
0.2 nM | 50.1 nM | 0.7 | CC(C)c1nc(C(=O)N2CCOC3(CCN(Cc4cccc(OCCCOCCC(=O)N(CCNCCc5ccc(O)c6c5OCC(=O)N6)C5CCCCC5)c4)CC3)C2)cs1 [Example 60, N-Cyclohexyl-N-(2-(2-(5-hydroxy-3-oxo-3,4-dihydro-2H-benzo[b][1,4]oxazin-8-yl)ethylamino)ethyl)-3-(3-(3-((4-(2-isopropylthiazole-4-carbonyl)-1-oxa-4,9-diazaspiro[5.5]undecan-9-yl)methyl)phenoxy)propoxy)propanamide ditrifluoroacetate]
0.316 nM | 79.4 nM | 1.1 | CC(C)c1nc(C(=O)N2CCOC3(CCN(Cc4cccc(CCOCCC(=O)N(CCNCCc5ccc(O)c6[nH]c(=O)sc56)C5CCOCC5)c4F)CC3)C2)cs1 [Example 11, 3-(2-Fluoro-3-((4-(2-isopropylthiazole-4-carbonyl)-1-oxa-4,9-diazaspiro[5.5]undecan-9-yl)methyl)phenethoxy)-N-(2-(2-(4-hydroxy-2-oxo-2,3-dihydrobenzo[d]thiazol-7-yl)ethylamino)ethyl)-N-(tetrahydro-2H-pyran-4-yl)propanamide ditrifluoroacetate]
0.631 nM | 39.8 nM | 1.0 | CC(C)c1nc(C(=O)N2CCOC3(CCN(Cc4cccc(CCOCCC(=O)N(CCNCCc5ccc(O)c6c5OCC(=O)N6)C5CCCCCC5)c4F)CC3)C2)cs1 [Example 7, N-Cycloheptyl-3-(2-fluoro-3-((4-(2-isopropylthiazole-4-carbonyl)-1-oxa-4,9-diazaspiro[5.5]undecan-9-yl)methyl)phenethoxy)-N-(2-(2-(5-hydroxy-3-oxo-3,4-dihydro-2H-benzo[b][1,4]oxazin-8-yl)ethylamino)ethyl)propanamide ditrifluoroacetate]
12.6 nM | 501 nM | 1.2 | CCCCN(CCNCCc1ccc(O)c2c1OCC(=O)N2)C(=O)CCOCCc1ccccc1OCCN1CCC2(CC1)CN(C(=O)c1csc(C(C)C)n1)CCO2 [Example 178, N-butyl-N-(2-(2-(5-hydroxy-3-oxo-3,4-dihydro-2H-benzo[b][1,4]oxazin-8-yl)ethylamino)ethyl)-3-(2-(2-(4-(2-isopropylthiazole-4-carbonyl)-1-oxa-4,9-diazaspiro[5.5]undecan-9-yl)ethoxy)phenethoxy)propanamide trifluoroacetate salt]
3.98 nM | 3.16 nM | 1.0 | CCN(CCNCCc1ccc(O)c2[nH]c(=O)sc12)C(=O)CCOCCc1cccc(CCN2CCC3(CC2)CN(C(=O)c2csc(C(C)C)n2)CCO3)c1 [Example 35, N-Ethyl-N-(2-(2-(4-hydroxy-2-oxo-2,3-dihydrobenzo[d]thiazol-7-yl)ethylamino)ethyl)-3-(3-(2-(4-(2-isopropylthiazole-4-carbonyl)-1-oxa-4,9-diazaspiro[5.5]undecan-9-yl)ethyl)phenethoxy)propanamide ditrifluoroacetate]
1 nM | 398 nM | 0.9 | CCN(CCNCCc1ccc(O)c2[nH]c(=O)sc12)C(=O)CCOCCc1cc(CN2CCC3(CC2)CN(C(=O)c2csc(C(C)C)n2)CCO3)ccc1F [Example 43, N-Ethyl-3-(2-fluoro-5-((4-(2-isopropylthiazole-4-carbonyl)-1-oxa-4,9-diazaspiro[5.5]undecan-9-yl)methyl)phenethoxy)-N-(2-(2-(4-hydroxy-2-oxo-2,3-dihydrobenzo[d]thiazol-7-yl)ethylamino)ethyl)propanamide ditrifluoroacetate]
0.251 nM | 31.6 nM | 0.8 | CC(C)c1nc(C(=O)N2CCOC3(CCN(Cc4cccc(COCCOCCC(=O)N(CCNCCc5ccc(O)c6c5OCC(=O)N6)C5CCCCC5)c4)CC3)C2)cs1 [Example 67, N-Cyclohexyl-N-(2-(2-(5-hydroxy-3-oxo-3,4-dihydro-2H-benzo[b][1,4]oxazin-8-yl)ethylamino)ethyl)-3-(2-(3-((4-(2-isopropylthiazole-4-carbonyl)-1-oxa-4,9-diazaspiro[5.5]undecan-9-yl)methyl)benzyloxy)ethoxy)propanamide ditrifluoroacetate]
0.398 nM | 15.8 nM | 1.0 | CCc1nc(C(=O)N2CCOC3(CCN(Cc4cccc(CCOCCC(=O)N(CCNCCc5ccc(O)c6c5OCC(=O)N6)C5CCCC5)c4Cl)CC3)C2)cs1 [Example 33, 3-(2-Chloro-3-((4-(2-ethylthiazole-4-carbonyl)-1-oxa-4,9-diazaspiro[5.5]undecan-9-yl)methyl)phenethoxy)-N-cyclopentyl-N-(2-(2-(5-hydroxy-3-oxo-3,4-dihydro-2H-benzo[b][1,4]oxazin-8-yl)ethylamino)ethyl)propanamide ditrifluoroacetate]
0.316 nM | 7.94 nM | 0.8 | CCc1nc(C(=O)N2CCOC3(CCN(Cc4cccc(CCOCCC(=O)N(CC)CCNCCc5ccc(O)c6c5OCC(=O)N6)c4Cl)CC3)C2)cs1 [Example 30, 3-(2-Chloro-3-((4-(2-ethylthiazole-4-carbonyl)-1-oxa-4,9-diazaspiro[5.5]undecan-9-yl)methyl)phenethoxy)-N-ethyl-N-(2-(2-(5-hydroxy-3-oxo-3,4-dihydro-2H-benzo[b][1,4]oxazin-8-yl)ethylamino)ethyl)propanamide ditrifluoroacetate]
2 nM | 20 nM | 0.9 | CC(C)c1nc(C(=O)N2CCOC3(CCN(Cc4cccc(CCOCCC(=O)N(CCNCCc5ccc(O)c6c5OCC(=O)N6)C5CCCCC5)c4Cl)CC3)C2)cs1 [Example 27, 3-(2-Chloro-3-((4-(2-isopropylthiazole-4-carbonyl)-1-oxa-4,9-diazaspiro[5.5]undecan-9-yl)methyl)phenethoxy)-N-cyclohexyl-N-(2-(2-(5-hydroxy-3-oxo-3,4-dihydro-2H-benzo[b][1,4]oxazin-8-yl)ethylamine)ethyl)propanamide ditrifluoroacetate]
